In patent US5770420A, “Methods and products for the synthesis of oligosaccharide structures on glycoproteins, glycolipids, or as free molecules, and for the isolation of cloned genetic sequences that determine these structures” (The Regents of the University of Michigan, priority 1995, dated 1998):
Like-named read-outs stand apart in the source and are kept apart here.

Assays:
[1] = molecular target: IgG-Sepharose; assay: batch binding of conditioned medium to IgG-Sepharose, enzyme activity assayed
[2] = test system: chimera Fuc-TC2: Fuc-TIII (1-160) plus Fuc-TVI (160-359); conditions: acceptor 0.25-167 mM, 3 mM GDP-[14C]fucose (so in the source), pH 6.2, 37° C.
Experimental: (§1) Extracts for α(1,3)Fuc-T assays were prepared by harvesting COS-7 cells 72 hours after transfection, and solubilizing the cell pellets in 1% Triton X-100 (Kukowska-Latallo, J. F., et al (1990) Genes Devel., vol. 4, 1288-1303; Lowe, J. B., et al (1991) J. Biol. Chem., vol. 266, 17467-17477; Weston, B. W., et al (1992) J. Biol. Chem., vol. 267, 4152-4160; Weston, B. W., et al (1992) J. Biol. Chem. vol. 267, 24575-24584). Cell extract protein contents were determined with a micro BCA protein assay reagent (Pierce). Fucosyltransferase assays were performed in a final volume of 20 μl, and contained 25 mM sodium cacodylate (pH 6.2), 5 mM ATP, 10 mM L-fucose, 20 mM MnCl2 and 3 mM GDP-[^14 C]fucose. Cell extract protein concentration was varied to approximate linear reaction rate conditions (net [14C]-fucose incorporation rate of a less than twenty percent of total input GDP-[^14 C]fucose radioactivity). […] Reactions were incubated at 37° C. for one hour and were terminated by the addition of 20 μl ethanol, followed by dilution with […] water. The total radioactivity in each reaction was determined by subjecting an aliquot to scintillation counting. To assess the amount of radioactive fucose incorporated into product, an additional aliquot was applied to a Dowex 1×2-400 column in the formate form (Sasaki, K., et al (1994) J. Biol. Chem., vol. 269, 14730-14737; Natsuka, S., et al (1994) J. Biol. Chem., vol. 269, 16789-16794; Macher, B. A., et al (1991) Glycobiology, vol. 1, 577-584; Natsuka, S., and Lowe, J. B. (1994) Curr. Opin. Struct. Biol., vol. 4, 683-691). The flow through fraction plus an additional 2 ml of a water column "wash" was collected, pooled and subjected to scintillation counting. Control assays containing no added acceptor substrate were also completed in parallel.

[3] = test system: chimera Fuc-TC19: Fuc-TIII (1-99) plus Fuc-TVI (99-159) plus Fuc-TIII (161-361); conditions: acceptor 0.25-167 mM, 3 mM GDP-[14C]fucose (so in the source), pH 6.2, 37° C.
Experimental: as §1

[4] = test system: chimera Fuc-TC4: Fuc-TVI (1-159) plus Fuc-TIII (161-361); conditions: acceptor 0.25-167 mM, 3 mM GDP-[14C]fucose (so in the source), pH 6.2, 37° C.
Experimental: as §1

[5] = test system: chimera Fuc-TC20: Fuc-TVI (1-98) plus Fuc-TIII (100-160) plus Fuc-TVI (160-359); conditions: acceptor 0.25-167 mM, 3 mM GDP-[14C]fucose (so in the source), pH 6.2, 37° C.
Experimental: as §1

[6] = test system: chimera Fuc-TC18: Fuc-TVI (1-85) plus Fuc-TIII (87-160) plus Fuc-TVI (160-359); conditions: acceptor 0.25-167 mM, 3 mM GDP-[14C]fucose (so in the source), pH 6.2, 37° C.
Experimental: as §1

[7] = molecular target: IgG-Sepharose; assay: batch binding of conditioned medium to IgG-Sepharose, washed matrix assayed for enzyme activity
[8] = molecular target: human Fuc-TVI (α(1,3)fucosyltransferase), wild type, SEQ ID NO:14 (Homo sapiens, UniProt P51993); conditions: read-out: Apparent Km LNB-I; acceptor 0.25-167 mM, 3 mM GDP-[14C]fucose (so in the source), pH 6.2, 37° C.
Experimental: as §1

Compound: protein A-Fuc-TIV fusion protein encoded by pPROTA-α(Fuc-TIV)c (from UniProt P02976) (enzyme)
- percent of released activity retained [1]: 100%

Compound: CC(=O)N[C@H]1C(O)O[C@H](CO)[C@@H](O[C@@H]2O[C@H](CO)[C@H](O)[C@H](O)[C@H]2O)[C@@H]1O (stereo partly shown) [LacNAc, N-acetyllactosamine]
- Km ([2]; read-out: Apparent Km LacNAc): > 50 mM
- Km ([3]; read-out: Apparent Km LacNAc): 1.1 mM
- Km ([4]; read-out: Apparent Km LacNAc): 5.8 mM
- Km ([5]; read-out: Apparent Km LacNAc): > 50 mM
- Km ([6]; read-out: Apparent Km LacNAc): > 50 mM

Compound: protein A-fucosyltransferase fusion protein encoded by pPROTA-α(1,3/1,4)FTc (from UniProt P02976) (enzyme)
- percent of released activity retained [1]: 100%
- percent of activity recovered from the matrix after exhaustive washing [7]: 24%

Compound: CC(=O)N[C@H]1C(O)O[C@H](CO)[C@@H](O)[C@@H]1O[C@@H]1O[C@H](CO)[C@H](O)[C@H](O)[C@H]1O (stereo partly shown) [LNB-I, lacto-N-biose I]
- Km [8]: > 50 mM
- Km ([2]; read-out: Apparent Km LNB-I): > 50 mM
- Km ([3]; read-out: Apparent Km LNB-I): > 50 mM
- Km ([4]; read-out: Apparent Km LNB-I): > 50 mM
- Km ([5]; read-out: Apparent Km LNB-I): > 50 mM
- Km ([6]; read-out: Apparent Km LNB-I): > 50 mM

Compound: protein A-Fuc-TV fusion protein encoded by pPROTA-Fuc-TVc (from UniProt P02976) (enzyme)
- percent of released activity retained [1]: 100%

Compound: protein A-α(1,2)fucosyltransferase fusion protein encoded by pPROTA-α(1,2)FTc (from UniProt P02976) (enzyme)
- percent of released activity retained [1]: 100%
